The target of this assay is T1, Human M4 receptors (Homo sapiens, UniProt P08173).
T1 construct: expressed in transfected cells; host or cells: HEK293 cells with Promega GloSensor cAMP technology, stably expressing hM4
T1 sequence (P08173 1-479): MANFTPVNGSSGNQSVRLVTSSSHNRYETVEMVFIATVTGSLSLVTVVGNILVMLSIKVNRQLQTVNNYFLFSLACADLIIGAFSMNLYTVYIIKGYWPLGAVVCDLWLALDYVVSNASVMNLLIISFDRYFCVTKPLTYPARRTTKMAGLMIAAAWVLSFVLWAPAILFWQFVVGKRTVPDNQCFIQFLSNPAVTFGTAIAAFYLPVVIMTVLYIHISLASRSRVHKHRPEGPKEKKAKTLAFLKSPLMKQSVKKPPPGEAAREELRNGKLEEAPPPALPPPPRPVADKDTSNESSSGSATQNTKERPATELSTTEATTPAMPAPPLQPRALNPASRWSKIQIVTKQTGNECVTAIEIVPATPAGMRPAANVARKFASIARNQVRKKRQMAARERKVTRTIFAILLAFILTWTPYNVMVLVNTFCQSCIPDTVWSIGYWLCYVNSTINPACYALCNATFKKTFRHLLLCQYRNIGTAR
Briefly: M4 PAM cAMP assay (GloSensor). It counts as cell-based. Conditions: for Emax: HEK293, read-out: M4 glosensor EC50 Mean Asymptote Maximum (%); for EC50: HEK293 GloSensor cells expressing hM4, with EC20 acetylcholine and isoproterenol, geometric mean of 2-4 determinations unless otherwise indicated. The method, then:
The M4 PAM binding affinity for the compounds of the present invention was determined utilizing the following biological assay(s):
The M4 cAMP assay was designed to determine the potency and efficacy of muscarinic positive allosteric modulators (PAMs). Human M4 receptors were stably expressed in Human embryonic kidney (HEK293) cells expressed with the Promega GloSensor™ cAMP technology.
HEK293 GloSensor cells expressing hM4 cells were cultured in growth media containing DMEM with 10% FBS, 1% Penicillin/Streptomycin, 500 μg/mL G418, 200 μg/mL Hygomycin B, and 1% Glutamax. […] Plates were incubated at 37 degrees C. and 5% CO2 for use after 24 hours.
Compound Preparation for Agonist Screen:
Each compound was tested at 10 concentrations in duplicate per experiment. Compound plates are spotted with 0.2 μL/well agonist at 400 times the final assay concentration. Positive and negative controls for the compound alone agonist response was 10 μM acetylcholine (Sigma #A2661) and DMSO, respectively. EC20 of acetylcholine was also used to define PAM activities.
Promega GloSensor™ reagent (Promega #E1291) had previously been aliquotted. […] Stock solution was mixed. Culture media in cell plates was discarded, then replaced with 40 μL/well pre-warmed equilibration media, then incubated in the dark at room temperature for 2 hours. During the incubation, stimulation media containing agonist and EC20 acetylcholine was prepared. […] Compounds are now 5 times the final assay concentration. The plate was mixed using a plate agitator. At the end of the 2 hour GloSensor™ incubation, add 10 μL of the CO2-independent media containing agonist, EC20 acetylcholine and isoproterenol to the cell plate. Cell plate was then incubated for 10 minutes at room temperature, and then read using an EnVision plate reader (Perkin Elmer).
Data was exported from the EnVision plate reader. The percent effect for each well was determined using the mean values for the positive and negative controls on each plate for each read, specifically 100*(compound−negative control)/(positive control−negative control). Dose response curves were fitted to the compound percent effect data using a 4-parameter logistic fit model. Data was reported as EC50 and Emax, with the Emax as the maximum asymptote of the fitted dose response curve.

Here are results for 20 compounds from patent US11905284B2, “5,7-dihydro-pyrrolo-pyridine derivatives” (PFIZER INC., priority 2016, dated 2024).

By EC50 is commonly meant the concentration at which the effect is half-maximal. With `COCc1nc2c(c(C)c1Cl)CN(C(=O)CC1CN(c3cccnc3)C1)C2` [Example 48, 1-[3-chloro-2-(methoxymethyl)-4-methyl-5,7-dihydro-6H-pyrrolo[3,4-b]pyridin-6-yl]-2-[1-(pyridin-3-yl)azetidin-3-yl]ethanone], the Emax is 105% and the EC50 was determined as 2.99 nM.

As to `COCc1nc2c(c(C)c1Cl)CN(C(=O)CC1CN(c3ccc(F)nc3)C1)C2` [Example 49, 1-[3-chloro-2-(methoxymethyl)-4-methyl-5,7-dihydro-6H-pyrrolo[3,4-b]pyridin-6-yl]-2-[1-(6-fluoropyridin-3-yl)azetidin-3-yl]ethanone], the Emax amounted to 101% and the EC50 came to 11.2 nM.

`COCc1cc(C)c2c(n1)CN(C(=O)CC1CN(c3ccnc(C(F)F)c3)C1)C2` [Example 50, 2-{1-[2-(difluoromethyl)pyridin-4-yl]azetidin-3-yl}-1-[2-(methoxymethyl)-4-methyl-5,7-dihydro-6H-pyrrolo[3,4-b]pyridin-6-yl]ethanone]: the Emax was determined as 99.2% and the concentration for a half-maximal effect (EC50) came out at 14.3 nM.

For `COCc1nc2c(c(C)c1Cl)CN(C(=O)CC1CN(c3ccnc(OC(F)F)c3)C1)C2` [Example 52, 1-[3-chloro-2-(methoxymethyl)-4-methyl-5,7-dihydro-6H-pyrrolo[3,4-b]pyridin-6-yl]-2-{1-[2-(difluoromethoxy)pyridin-4-yl]azetidin-3-yl}ethanone], the Emax was 111% and the response was half-maximal at 4.68 nM (EC50).

For `Cc1c(C(F)F)nc2c(c1C)CN(C(=O)CC1CN(c3ccnc(C(F)F)c3)C1)C2` [Example 53, 1-[2-(difluoromethyl)-3,4-dimethyl-5,7-dihydro-6H-pyrrolo[3,4-b]pyridin-6-yl]-2-{1-[2-(difluoromethyl)pyridin-4-yl]azetidin-3-yl}ethanone], the Emax amounted to 104% and the concentration for a half-maximal effect (EC50) turned out to be 38.6 nM.

For the compound `Cc1cc(C)c2c(n1)CN(C(=O)CC1Cc3ccccc3C1)C2` [Example 56, 2-(2,3-dihydro-1H-inden-2-yl)-1-(2,4-dimethyl-5,7-dihydro-6H-pyrrolo[3,4-b]pyridin-6-yl)ethanone], the Emax was 71.8% and it took 209 nM to reach a half-maximal effect (EC50).

Consider `Cc1cc(C)c2c(n1)CN(C(=O)OC1CN(c3nncs3)C1)C2` [Example 62, 1-(1,3,4-thiadiazol-2-yl)azetidin-3-yl 2,4-dimethyl-5,7-dihydro-6H-pyrrolo[3,4-b]pyridine-6-carboxylate], for which the Emax was found to be 47% and the EC50 was found to be 95.7 nM.

As for `Cc1c(C(F)F)nc2c(c1C)CN(C(=O)OC1CN(c3ncns3)C1)C2` [Example 63, 1-(1,2,4-thiadiazol-5-yl)azetidin-3-yl 2-(difluoromethyl)-3,4-dimethyl-5,7-dihydro-6H-pyrrolo[3,4-b]pyridine-6-carboxylate], the Emax was 51.8% and the EC50 amounted to 42.4 nM.

Take `Cc1nc2c(c(C)c1C)CN(C(=O)OC1CN(c3ncns3)C1)C2` [Example 64, 1-(1,2,4-thiadiazol-5-yl)azetidin-3-yl 2,3,4-trimethyl-5,7-dihydro-6H-pyrrolo[3,4-b]pyridine-6-carboxylate]: the Emax amounted to 88.5% and the concentration giving a half-maximal response (EC50) turned out to be 40.2 nM.

As for `Cc1nc2c(c(C)c1C)CN(C(=O)OC1CN(c3nncs3)C1)C2` [Example 65, 1-(1,3,4-thiadiazol-2-yl)azetidin-3-yl 2,3,4-trimethyl-5,7-dihydro-6H-pyrrolo[3,4-b]pyridine-6-carboxylate], the Emax was 88.2% and the EC50 was 62.6 nM.

`COCc1nc2c(c(C)c1Cl)CN(C(=O)OC1CN(c3cccnc3)C1)C2` [Example 66, 1-(pyridin-3-yl)azetidin-3-yl 3-chloro-2-(methoxymethyl)-4-methyl-5,7-dihydro-6H-pyrrolo[3,4-b]pyridine-6-carboxylate]: the Emax is 163% and the EC50 came to 52.3 nM.

Take `Cc1nc2c(c(C)c1Cl)CN(C(=O)OC1CN(c3ncns3)C1)C2` [Example 67, 1-(1,2,4-thiadiazol-5-yl)azetidin-3-yl 3-chloro-2,4-dimethyl-5,7-dihydro-6H-pyrrolo[3,4-b]pyridine-6-carboxylate]: the Emax is 98.6% and the half-maximal effective concentration (EC50) came out at 18.5 nM.

As to `Cc1cc(C)c2c(n1)CN(C(=O)CC1CN(c3ccc(C4(C)COC4)cc3)C1)C2` [Example 68, 1-(2,4-dimethyl-5,7-dihydro-6H-pyrrolo[3,4-b]pyridin-6-yl)-2-{1-[4-(3-methyloxetan-3-yl)phenyl]azetidin-3-yl}ethanone], the Emax was found to be 99.4% and the half-maximal effective concentration (EC50) stood at 485 nM.

Turning to `COc1ccc(C#N)cc1N1CC(CC(=O)N2Cc3nc(C)cc(C)c3C2)C1` [Example 69, 3-{3-[2-(2,4-dimethyl-5,7-dihydro-6H-pyrrolo[3,4-b]pyridin-6-yl)-2-oxoethyl]azetidin-1-yl}-4-methoxybenzonitrile], the Emax was 41.5% and the EC50 turned out to be 1360 nM.

Take `Cc1cc(C)c2c(n1)CN(C(=O)CC1CN(c3ccc(C(=O)N(C)C)cc3)C1)C2` [Example 70, 4-{3-[2-(2,4-dimethyl-5,7-dihydro-6H-pyrrolo[3,4-b]pyridin-6-yl)-2-oxoethyl]azetidin-1-yl}-N,N-dimethylbenzamide]: the Emax is 95% and the EC50 was 184 nM.

On to `Cc1cc(C)c2c(n1)CN(C(=O)CC1CN(c3ccc(CO)cc3)C1)C2` [Example 71, 1-(2,4-dimethyl-5,7-dihydro-6H-pyrrolo[3,4-b]pyridin-6-yl)-2-{1-[4-(hydroxymethyl)phenyl]azetidin-3-yl}ethanone], for which the Emax is 90.5% and the EC50 came to 195 nM.

`Cc1cc(C)c2c(n1)CN(C(=O)CC1CN(c3ccc(C4CC4)cc3)C1)C2` [Example 72, 2-[1-(4-cyclopropylphenyl)azetidin-3-yl]-1-(2,4-dimethyl-5,7-dihydro-6H-pyrrolo[3,4-b]pyridin-6-yl)ethanone]: the Emax stood at 90.6% and the EC50 came out at 537 nM.

With `Cc1cc(C)c2c(n1)CN(C(=O)CC1CN(c3ccc(C(O)C4CC4)cc3)C1)C2` (stereo not shown) [Example 73, 2-(1-{4-[cyclopropyl(hydroxy)methyl]phenyl}azetidin-3-yl)-1-(2,4-dimethyl-5,7-dihydro-6H-pyrrolo[3,4-b]pyridin-6-yl)ethanone], the Emax was found to be 95.3% and the concentration giving a half-maximal response (EC50) is 90.5 nM.

As to `COc1ccc(N2CC(CC(=O)N3Cc4nc(C)cc(C)c4C3)C2)cc1CC#N` [Example 74, (5-{3-[2-(2,4-dimethyl-5,7-dihydro-6H-pyrrolo[3,4-b]pyridin-6-yl)-2-oxoethyl]azetidin-1-yl}-2-methoxyphenyl)acetonitrile], the Emax stood at 84.4% and a half-maximal response (EC50) required 460 nM.

Regarding `CNC(=O)c1ccc(N2CC(CC(=O)N3Cc4nc(C)cc(C)c4C3)C2)cc1` [Example 75, 4-{3-[2-(2,4-dimethyl-5,7-dihydro-6H-pyrrolo[3,4-b]pyridin-6-yl)-2-oxoethyl]azetidin-1-yl}-N-methylbenzamide], the Emax stood at 89.2% and the half-maximal effective concentration (EC50) came to 105 nM.
